Tests used:
[1] = system: genes involved in osteoblast activity, osteoclastogenesis, apoptosis and oxidative stress enzymes; test: OVX rat study: qRT-PCR of bone marrow and flushed femur; assay type: in vivo, Wistar rats; conditions: for decrease in concentration ratio of RANKL/OPG: P<0.05
Experimental: FIG. 10 depicts […] analysis of genes involved in osteoblast activity, osteoclastogenesis, apoptosis and oxidative stress enzymes, in accordance with embodiments of the present invention. Bone marrow (A) was analyzed for relative mRNA abundance of the osteoclastogenesis gene factor of activated T-cells (Nfatc1), while the flushed femur (B-D) was used to examine genes involved in osteoblast activity and function: type 1 collagen (Colla1), osteocalcin (Ocn), alkaline phosphatase (Alp), osteoprotegerin (Opg), and receptor activator for NF-kappa B ligand (Rankl) in sham-operated (SHAM) and ovariectomized (Ovx) rats treated with placebo or lycopene (15, 30 and 45 mg/kg body weight per day) or alendronate (ALN) (2.0 ug/kg body weight per day) for 12 weeks. Bone marrow (F-H) was analyzed for relative mRNA abundance of oxidative enzyme: glutathione peroxidase (GPx), superoxide dismutase (SOD) and catalase (CAT) in sham-operated (SHAM) and ovariectomized (Ovx) rats treated with placebo or lycopene (15, 30 and 45 mg/kg body weight per day) or alendronate (ALN) (2.0 ug/kg body weight per day) for 12 weeks. Bone marrow (I) and the flushed femur (J-L) were analyzed for relative mRNA abundance of apoptotic genes. Genes of interest including, B-cell lymphoma homologous antagonist/killer (Bak1), caspase-3 (Casp3) and -9 (Casp 9) in sham-operated (SHAM) and ovariectomized (Ovx) rats treated with placebo or lycopene (15, 30 and 45 mg/kg body weight per day) or alendronate (ALN) (2.0 ug/kg body weight per day) for 12 weeks. Bars represent the mean±SD for 10 rats in each group.
A total of 264 Wistar female rats, ˜6 months old, were supplied by the Animal House at King Fahd Medical Research Center (KFMRC), KAU. Rats were housed in individual cages and maintained at 22° C. with a 12-h light/dark cycle. During the study period, rats were given standard rodent chow diet ad libitum (commercial rat cubes containing approximately 18% protein, 3% fat, 77% carbohydrate, and 2% of an inorganic-salt mixture with a vitamin supplement by weight, supplied by Grain Silos and Flour Mills Organization, Jeddah, Saudi Arabia) and water until the onset of intervention. Prior to surgery, rats were anesthetized with ketamine [(10% ketamine hydrochloride (80 mg/kg body weight), Cayman Chemical, Michigan, USA] and xylazine [(2% xylazine hydrochloride, 10 mg/kg body weight), Sigma-Aldrich Co., St. Louis, USA]. A single longitudinal skin incision was made on the dorsal midline at the level of the kidneys and both ovaries were ligated and removed to produce an ovariectomy in all OVX group animals. A SHAM-operated group, acting as a negative control for the effect of ovariectomy on bone parameters, underwent bilateral laparotomy, during which the ovaries were exposed but remained intact. […] The lycopene-supplemented groups were given lycopene (15, 30 and 45 mg/kg body weight per day) dissolved in corn oil by daily intra-gastric administration for the experimental period of 12 weeks. The SHAM, OVX and ALN control groups were given the same volume of corn oil without lycopene treatment. […] A 12-week randomized placebo-controlled study in order to examine the protective effects of lycopene supplementation on bone mass and fragility in OVX rats was concluded. Prior to surgery, body weight and bone mineral density (BMD) were obtained for all animals. Rats were randomized using a computer-generated randomization code into one of six groups: (1) sham-operated (SHAM; n=44); (2) ovariectomized control (OVX; n=44); (3) OVX lycopene-supplemented (15 mg/kg body weight per day) (n=44); (4) OVX lycopene-supplemented (30 mg/kg body weight per day) (n=44); (5) OVX lycopene-supplemented (45 mg/kg body weight per day) (n=44) and (6) OVX alendronate-treated (ALN) [2.0 μg/kg body weight per day subcutaneously (sc)] (n=44). Alendronate is an anti-resorptive agent for the treatment of osteoporosis and was used as a positive therapy control. […]

[2] = system: ovariectomized (OVX) rats; test: OVX rat study: plasma GPx, SOD, CAT activities and urinary 8-OHdG; assay type: in vivo, Wistar rats
Experimental: Prior to surgery, rats were anesthetized with ketamine [(10% ketamine hydrochloride (80 mg/kg body weight), Cayman Chemical, Michigan, USA] and xylazine [(2% xylazine hydrochloride, 10 mg/kg body weight), Sigma-Aldrich Co., St. Louis, USA]. A single longitudinal skin incision was made on the dorsal midline at the level of the kidneys and both ovaries were ligated and removed to produce an ovariectomy in all OVX group animals. A SHAM-operated group, acting as a negative control for the effect of ovariectomy on bone parameters, underwent bilateral laparotomy, during which the ovaries were exposed but remained intact. […] The lycopene-supplemented groups were given lycopene (15, 30 and 45 mg/kg body weight per day) dissolved in corn oil by daily intra-gastric administration for the experimental period of 12 weeks. The SHAM, OVX and ALN control groups were given the same volume of corn oil without lycopene treatment. […] Prior to surgery, body weight and bone mineral density (BMD) were obtained for all animals. […] Alendronate is an anti-resorptive agent for the treatment of osteoporosis and was used as a positive therapy control. […] All OVX groups were pair-fed with the SHAM group throughout the study to avoid the possible effects of ovariectomy-induced over-consumption and subsequent excessive weight gain. Treatment started 1 week after the surgery: this period of rest allowed the rats to recover from the stress associated with the surgery. In addition, after surgery, rats were administered Diclofenac sodium injection (20 mg/Kg body weight) to reduce the pain associated with the surgery. Rats were weighed and examined daily. Blood and urine samples were collected at baseline, during, and at the end of treatment for measurement of various BTMs and other analytes. […] Blood and urine samples were collected from all experimental groups to measure biochemical analytes and BTMs at baseline and 4, 8, and 12 weeks of treatment.

[3] = flushed femurs, lycopene treatment

CC(C)=CCC/C(C)=C/C=C/C(C)=C/C=C/C(C)=C/C=C/C=C(C)/C=C/C=C(C)/C=C/C=C(\C)CCC=C(C)C [lycopene]
Alp, Colla1 and Ocn mRNA ([1]; OVX rats, lycopene treatment): enhancing | RANKL expression ([1]; all three doses of lycopene): down-regulated | Bak1 mRNA abundance compared to OVX control ([1]; bone marrow, lycopene treatment): up-regulated | OVX-induced increase in Nfatc1 mRNA ([1]; bone marrow, lycopene, 12 weeks, restored to SHAM level): suppressed | Casp 9 and Casp 3 gene expression [1, 3]: did not change | Colla1 gene expression [1, 3]: remained elevated | OPG expression ([1]; higher doses of lycopene): decreased | decrease in concentration ratio of RANKL/OPG ([1]; lycopene 30 mg/kg body weight per day): 18.9% | decrease in concentration ratio of RANKL/OPG ([1]; lycopene 45 mg/kg body weight per day): 38.3% | GPX-1, CAT and SOD relative expression ([1]; lycopene treatment, to a level higher than SHAM): increased | plasma GPx, CAT and SOD activities ([2]; after lycopene treatment): increased | increase in plasma GPx activity compared to the OVX control ([2]; lycopene 15-45 mg/kg/day, P<0.001): 30.6-57.2% | urinary 8-OHdG levels ([2]; lycopene, dose-dependent manner, P<0.001): significantly decreased

— US9956181B2, “Composition of nanoformulated lycopene and method of using the composition” (priority 2015, dated 2018)
